Experimental data taken from EP0583821A1, “Atriopeptins, guanylate cyclase activators, and phosphodiesterase inhibitors as treatment for glaucoma, hydrocephalus and cerebral edema (cranial fluid volume dysfunction)” (THE GENERAL HOSPITAL CORPORATION, priority 1987, dated 1988).

Columns and labels:
rabbits = test: Intraocular pressure and ocular observations after topical (eye drop) application; format: in vivo, rabbit
Procedure: The measurement of intraocular pressure (IOP), was performed using procedures similar to those described in Nathanson, Brit. J. Pharmacol., 73:97 (1981) and Nathanson, Current Eye Res., 4:191 (1985). Briefly, male (3-5 kg), New Zealand white rabbits were housed under standard conditions and exposed to a 12 hr light-dark cycle. IOP was measured with a Perkins applanation tonometer after topical anesthesia with 0.4% benoxinate (and 0.25% sodium fluorescein). The tonometer had been calibrated previously by connecting the anterior chamber of enucleated rabbit eyes to a manometer (and reservoir) and taking tonometer readings at different pressures. A number of preliminary IOP readings were made in order to accommodate the animals to the measurement procedure. Readings were then taken just prior to drug or vehicle injection and at 3, 9, 20, 27, 44, 51, 72, and 144 hours post-injection.
A potent PDE inhibitor of the arylxanthine class, 1,3-dibutylxanthine, was applied unilaterally and topically to rabbit eyes in a 0.5% solution. […] The IOP was decreased 4 mm (Hg) in the ipsilateral eye (Figure 8).
(§1) Again there was about a 4 mm (Hg) decrease in intraocular pressure. […] This xanthine inhibited the enzyme with an IC₅₀ (concentration necessary for 50% enzyme inhibition) of 25 uM.
The effect of nitroglycerine eye drops on rabbit intraocular pressure was also measured. The IOP of 8 conscious, male albino rabbits (3-4 kg) was measured by applanation pnumatonometry after topical anesthesia with 0.4% benoxinate. Nitroglycerine in phosphate buffered saline, pH 7.4, was given unilaterally, in two 25µl drops spaced five minutes apart. Blood pressure and pulse rate were measured by a photoelectric detector using an automated external tail cuff. […] By 24 hours, pressure had returned to normal.

cGMP phosphodiesterase = test: Inhibition of cGMP phosphodiesterase in ciliary process; format: biochemical; details: Fig. 9B, read-out: IC₅₀ (concentration necessary for 50% enzyme inhibition)
From the text: The ability of any compound to inhibit cGMP phosphodiesterase (PDE) activity in broken-cell preparations of choroid epithelial cells or ciliary process can be determined either 1) by measuring the decrease in rate of hydrolysis of an added amount of cyclic GMP by PDE (see, Methods Section of Nathanson et al., Mol. Pharmacol. 12:390-398 (1975)), or 2) by measuring the rate of accumulation of one of the breakdown products of cyclic GMP, such as 5'-GMP or guanosine (see method of Filburn et al., Anal. Biochem. 52:505-516 (1973)). Both of these are herein incorporated by reference.
as §1

adenylate cyclase = test: Adenylate cyclase activity in P1 fractions of whole choroid; format: biochemical, rabbit; details: rANP at high concentrations
Procedure: The effect of rANP on membrane-bound guanylate cyclase and adenylate cyclase activity in various brain-barrier tissues and tissue fractions from rabbit was compared with its activity in cerebrum and cerebellum. Guanylate cyclase was measured as the rate of cyclic GMP formation by modifications of the technique of Waldman et al., supra, incorporated herein by reference. Briefly, tissues were homogenized (10 mg wet weight per milliliter) in 50 mM tris-HCl, pH 8.0, 1 mM EDTA, 1 mM dithiothreitol, and 250 mM sucrose and centrifuged at 100,000g to obtain a P1 pellet. Reaction tubes contained (in 0.3 ml), 50 mM tris, pH 7.6, 6 mM MnCl₂, 0.5 mM 3-isobutyl, 1-methylxanthine (IBMX), 10 mM theophylline, 3 mM GTP, hormone (in 0.03 ml containing 2.5 mM ascorbic acid and 0.1% bovine serum albumin), and 0.06 ml of P1 fraction (40 to 60 ug of protein). The reaction (4 minutes at 30°C) was started by addition of GTP and terminated by addition of 0.3 ml of 150 mM sodium acetate (pH 4.0) and boiling for 3 minutes. Cyclic GMP formed was subsequently measured by radioimmunoassay as described in example 6, infra. Under these conditions, guanylate cyclase activity was linear with time and tissue concentration. Adenylate cyclase activity in P1 fractions was measured according to the method described by Nathanson, et al., Science; 204:843 (1979); Mol. Pharmacol. 18:199 (1980), see Figure 1C . […] Neurosci. […]

guanylate cyclase [1] = target: T1, guanylate cyclase (Oryctolagus cuniculus, UniProt G1TXB5); test: Atriopeptin-activated guanylate cyclase in kidney membrane (P1) fractions; format: biochemical, rabbit; set-up: tissues were homogenized (10 mg wet weight per milliliter); from tissue; host or cells: rabbit cerebral microvessels, choroid plexus, kidney, ciliary process, pia-arachnoid, cerebellum; 100,000 g P1 pellet; details: mean ± range of duplicate determinations
T1 sequence (G1TXB5 28-1056): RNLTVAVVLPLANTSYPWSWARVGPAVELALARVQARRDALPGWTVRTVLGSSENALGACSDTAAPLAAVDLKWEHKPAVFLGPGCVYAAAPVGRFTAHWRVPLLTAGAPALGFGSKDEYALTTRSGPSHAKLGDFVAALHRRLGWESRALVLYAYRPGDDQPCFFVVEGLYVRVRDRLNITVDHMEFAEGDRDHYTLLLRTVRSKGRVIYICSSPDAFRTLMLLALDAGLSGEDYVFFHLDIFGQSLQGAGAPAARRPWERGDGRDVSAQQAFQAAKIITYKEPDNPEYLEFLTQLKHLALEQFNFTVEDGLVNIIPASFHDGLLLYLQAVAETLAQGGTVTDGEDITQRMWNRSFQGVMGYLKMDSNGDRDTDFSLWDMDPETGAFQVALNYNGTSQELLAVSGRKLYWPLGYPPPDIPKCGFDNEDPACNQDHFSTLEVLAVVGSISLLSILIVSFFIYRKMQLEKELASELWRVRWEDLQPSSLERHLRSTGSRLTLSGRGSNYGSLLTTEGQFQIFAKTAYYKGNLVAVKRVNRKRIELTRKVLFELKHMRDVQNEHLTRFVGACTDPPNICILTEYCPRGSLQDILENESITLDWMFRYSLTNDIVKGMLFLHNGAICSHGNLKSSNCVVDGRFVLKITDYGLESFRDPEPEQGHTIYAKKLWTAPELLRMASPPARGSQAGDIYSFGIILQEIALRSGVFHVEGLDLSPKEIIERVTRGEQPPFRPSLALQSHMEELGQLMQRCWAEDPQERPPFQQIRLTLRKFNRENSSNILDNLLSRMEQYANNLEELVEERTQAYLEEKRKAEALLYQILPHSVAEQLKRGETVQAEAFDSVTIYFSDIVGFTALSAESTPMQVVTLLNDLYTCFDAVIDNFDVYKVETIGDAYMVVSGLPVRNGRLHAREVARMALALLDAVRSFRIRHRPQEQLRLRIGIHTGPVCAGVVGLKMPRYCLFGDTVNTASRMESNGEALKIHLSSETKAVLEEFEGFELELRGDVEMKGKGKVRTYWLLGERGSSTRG
Procedure: The effect of rANP on membrane-bound guanylate cyclase and adenylate cyclase activity in various brain-barrier tissues and tissue fractions from rabbit was compared with its activity in cerebrum and cerebellum. Guanylate cyclase was measured as the rate of cyclic GMP formation by modifications of the technique of Waldman et al., supra, incorporated herein by reference. Briefly, tissues were homogenized (10 mg wet weight per milliliter) in 50 mM tris-HCl, pH 8.0, 1 mM EDTA, 1 mM dithiothreitol, and 250 mM sucrose and centrifuged at 100,000g to obtain a P1 pellet. Reaction tubes contained (in 0.3 ml), 50 mM tris, pH 7.6, 6 mM MnCl₂, 0.5 mM 3-isobutyl, 1-methylxanthine (IBMX), 10 mM theophylline, 3 mM GTP, hormone (in 0.03 ml containing 2.5 mM ascorbic acid and 0.1% bovine serum albumin), and 0.06 ml of P1 fraction (40 to 60 ug of protein). The reaction (4 minutes at 30°C) was started by addition of GTP and terminated by addition of 0.3 ml of 150 mM sodium acetate (pH 4.0) and boiling for 3 minutes. Cyclic GMP formed was subsequently measured by radioimmunoassay as described in example 6, infra. Under these conditions, guanylate cyclase activity was linear with time and tissue concentration. Adenylate cyclase activity in P1 fractions was measured according to the method described by Nathanson, et al., Science; 204:843 (1979); Mol. Pharmacol. 18:199 (1980), see Figure 1C . […] Neurosci. Abstr., 10, 899 (1984); Nathanson, et al., Soc. Neurosci. Abstr., 12, 1257 (1986), incorporated herein by reference, but with a lower concentration (0.025%) of trypsin and a rotating tissue tumbler which allowed cleaner fractionation of epithelial cells from erythrocytes and vascular components.
Ciliary process tips were obtained from male, 3-4 kg, New Zealand white rabbits, immediately following sacrifice with an overdose of ether, as described in Nathanson, Invest. Ophthal. Vis. Sci., 21:7981 (1982). […]
(§2) Atriopeptin-activated guanylate cyclase activity was measured as the rate of conversion of GTP to cyclic GMP. […]

guanylate cyclase [2] = target: T1, guanylate cyclase; test: Atriopeptin-activated guanylate cyclase in ciliary process membrane (P1) fractions; format: biochemical, rabbit; set-up: tissues were homogenized (10 mg wet weight per milliliter); from tissue; host or cells: rabbit cerebral microvessels, choroid plexus, kidney, ciliary process, pia-arachnoid, cerebellum; 100,000 g P1 pellet; details: mean ± range of duplicate determinations
Procedure: Ciliary process tips were obtained from male, 3-4 kg, New Zealand white rabbits, immediately following sacrifice with an overdose of ether, as described in Nathanson, Invest. Ophthal. Vis. Sci., 21:7981 (1982). The tissue was minced and homogenized (10 mg/ml) by hand in a glass-glass homogenizer in a buffer consisting of 50 mM Tris HCl, pH 8.0; 1mM EDTA, and 250mM sucrose. The homogenate was diluted 30-fold with buffer and centrifuged at 100,000 x g, to obtain a P1 fraction. The pellet was rehomogenized in the original volume and left on ice until use. P1 fractions were also prepared from wedges of rabbit kidney taken from the same animals. In some experiments, P1 fractions were prepared from iris and from ciliary body, as described in Nathanson, Proc. Natl. Acad. Sci. USA, 77:7420 (1980). Briefly, iris was removed from its attachment to the ciliary body, cleaned of adhering ciliary process tissue, washed, and homogenized as above. The ciliary muscle was cleaned of most remaining ciliary process tissue, freed from the underlying sclera by blunt and sharp dissection, and then washed and homogenized.
as §2
For RIA, each tube contained (in 0.5ml), 50mM sodium acetate buffer (pH 6.2), 2mM EDTA, 1mg/ml bovine serum albumin, 0.1 ml of sample (or diluted sample), 8,000-15,000 cpm (about 5 fmole) of ¹²⁵I succinyl cyclic GMP tyrosine methyl ester, and antibody to bind 25-35% of the label. […] Activation constants (Ka) were determined from dose-response curves utilizing 12-14 data points (6-7 concentrations of hormone, in duplicate), each point representing the mean of triplicate RIA determinations.
Atriopeptin-activated guanylate cyclase activity was measured, as described in Example 5, in membranes from rabbit kidney and ciliary process prepared as in Example 4. […]

guanylate cyclase [3] = test: Ciliary process guanylate cyclase activity (Tables 2 and 3); format: biochemical; details: Table 3; concentration not given

## CCCCn1c(=O)c2[nH]cnc2n(CCCC)c1=O [1,3-dibutylxanthine]
rabbits; 0.5% solution, unilateral topical
  IOP in the contralateral eye: small decrease
rabbits; 0.5% solution, unilateral topical, rabbit eyes
  decrease of IOP in the ipsilateral eye: 4 mm (Hg)

## CC(C)Cn1c(=O)n(C)c(=O)c2[nH]cnc21 [1-methyl-3-isobutyl-xanthine]
rabbits; topical administration, Fig. 9A
  decrease in intraocular pressure: ~4 mm (Hg)
cGMP phosphodiesterase
  IC50: 25 µM

## CC(C)NCC(O)c1ccc(O)c(O)c1 (stereo not drawn) [isoproterenol]
Adenylate cyclase
  effect on adenylate cyclase activity: stimulated

## rANP 1-11 (SLRRSSCFGGR; Atrial natriuretic peptide; UniProt P01161 123-133, looked up, fragment)
Guanylate cyclase [1]
  Vmax Stimulation (%) of Guanylate Cyclase Kidney: 25 ± 6%
Guanylate cyclase [2]
  Vmax Stimulation (%) of Guanylate Cyclase Ciliary Process: 4 ± 6%

## sodium nitrate [COMPOUND "N"]
rabbits; 0.1% eye drop preparation, rabbits
  effect on IOP: lowers IOP
Guanylate cyclase [3]
  CILIARY PROCESS GUANYLATE CYCLASE ACTIVITY (Percent Increase): 46 Percent Increase
